Experimental data: patent US4010264A, “7-[3-Substituted isoxazol-5-yl]-acetamido-cephalosporanic acids and their anti-bacterial use” (Koninklijke Nederlandsche Gist-en Spiritusfabriek N.V., priority 1970, dated 1977)
In brackets after ≈: the same amount, converted by molar mass. Where a name gives a salt, the structure may show the parent alone. Read-outs that look alike come from different tables or passages of the source.

Columns and labels:
[1] = test system: Pseudomonas aeruginosa A 1058; experiment: in vivo infection test in mice; conditions: A1058, in Mus musculus
[2] = test system: Staphylococcus aureus A 2000; experiment: in vivo infection test in mice; conditions: A2000, in Mus musculus
[3] = test system: Pasteurella multocida A723; experiment: MIC, agar serial dilution test; assay type: cell-based
[4] = test system: Staphylococcus aureus L160a (penicillinase-producing); experiment: MIC, agar serial dilution test; conditions: 24 h
Proteus mirabilis O.T. = experiment: in vivo infection test in mice; conditions: in Mus musculus
[5] = test system: Staphylococcus aureus A 2001; experiment: in vivo infection test in mice; conditions: A2001, in Mus musculus
[6] = test system: Staphylococcus aureus A355 (penicillinase-producing); experiment: MIC, agar serial dilution test; conditions: 24 h
[7] = test system: Diplococcus pneumoniae L 54; experiment: MIC, agar serial dilution test; assay type: cell-based; conditions: Streptococcus pneumoniae
[8] = test system: Staphylococcus aureus A321; experiment: MIC, agar serial dilution test; assay type: cell-based
[9] = test system: Streptococcus faecalis L 80; experiment: MIC, agar serial dilution test; assay type: cell-based; conditions: Enterococcus faecalis
[10] = test system: Salmonella typhi murium R 172; experiment: in vivo infection test in mice; conditions: Salmonella enterica, in Mus musculus
[11] = percentages of bound serum by ultrafiltration and dialysis; assay type: in vitro ADME; conditions: read-out: percentage of bound serum (converted)
[12] = test system: Klebsiella pneumoniae A809; experiment: MIC, agar serial dilution test; assay type: cell-based
Escherichia coli 65161 = experiment: protection test in mice, Escherichia coli; assay type: in vivo, female mice (Swiss SPF); conditions: for ED50: ip, 168 h, Escherichia coli 65161 i.p., method of administration intraperitoneal
[13] = test system: Staphylococcus aureus A 321; experiment: in vivo infection test in mice; conditions: A321, in Mus musculus
[14] = secretion of compound in urine after intramuscular administration in rabbits; assay type: in vivo, rabbits (Nieuw Zeelander); conditions: rabbit, im, 50 mg/kg intramuscular, average, read-out: Secretion of compound in urine in % of the administered dose; for dose excreted at 6 h: after 6 hrs.; for dose excreted at 27 h: after 27 hrs.
Procedure: (§1) c. […] The rabbits were provided with "Cunicon" and water ad libitum. Each test group consisted of 3 rabbits. The dose was 50 mg/kg using water as the vehicle. […] The contents of the compound in the samples were determined microbiologically (only microbiologically detected amounts, i.e. anti-bacterially active concentrations only have been indicated).

in vivo = conditions: mouse, ip
[15] = blood (serum) contents after intramuscular administration in rabbits; assay type: in vivo, rabbits (Nieuw Zeelander); conditions: rabbit, im, 50 mg/kg intramuscular, average, read-out: Serum level; for concentration at 0.5 h: after 1/2 hr.; for concentration at 0.25 h: after 1/4 hr.; for concentration at 1 h: after 1 hr.; for concentration at 2 h: after 2 hrs.; for concentration at 4 h: after 4 hrs.
Procedure: as §1

[16] = test system: Bacillus subtilis ATCC 6633; experiment: MIC, agar serial dilution test; assay type: cell-based
[17] = test system: Staphylococcus aureus A55; experiment: MIC, agar serial dilution test; assay type: cell-based
Brucella melitensis A488 = experiment: microbe, parasite or virus in culture; assay type: cell-based; conditions: A488, 24 h
[18] = test system: Streptococcus haemolyticus A266; experiment: MIC, agar serial dilution test; assay type: cell-based
[19] = test system: Staphylococcus aureus A 2001; experiment: protection test in mice, Staphylococcus aureus; conditions: for ED50: Staphylococcus aureus, A2001, in Mus musculus, sc, 168 h
[20] = Pasteurella multocida A723, 24 hours at 37° C, read-out: MIC
[21] = L54, Diplococcus pneumoniae L 54, 24 hours at 37° C, read-out: MIC
[22] = Staphylococcus aureus A321, 24 hours at 37° C, read-out: MIC
[23] = Klebsiella pneumoniae A809, 24 hours at 37° C, read-out: MIC
[24] = ATCC6633, Bacillus subtilis ATCC 6633, 24 hours at 37° C, read-out: MIC
[25] = Staphylococcus aureus A55, 24 hours at 37° C, read-out: MIC
[26] = Streptococcus haemolyticus A266, 24 hours at 37° C, read-out: MIC
[27] = L80, Streptococcus faecalis L 80, 24 hours at 37° C, read-out: MIC

Compound: CC(=O)OCC1=C(C(=O)O)N2C(=O)[C@@H](NC(=O)Cc3cccs3)[C@H]2SC1 [Cephalotin, reference compound]
- ED50 ([1]; ip): > 215 mg/kg
- ED50 ([1]; sc): > 215 mg/kg
- ED50 ([2]; ip): 20 mg/kg
- ED50 ([2]; po): 147 mg/kg
- ED50 ([2]; sc): 110 mg/kg
- MIC ([3]; Pasteurella multocida, A723, 24 h): 0.25 µg/mL (≈ 0.631 µM)
- MIC [4]: 1 µg/mL (≈ 2.52 µM)
- ED50 (Proteus mirabilis O.T.; ip): 79.4 mg/kg
- ED50 (Proteus mirabilis O.T.; sc): 68.1 mg/kg
- ED50 ([5]; ip): 27.1 mg/kg
- ED50 ([5]; po): > 68.1 mg/kg
- MIC [6]: 1 µg/mL (≈ 2.52 µM)
- MIC ([7]; L54, 24 h): 0.25 µg/mL (≈ 0.631 µM)
- MIC ([8]; Staphylococcus aureus, A321, 24 h): 0.25 µg/mL (≈ 0.631 µM)
- MIC ([9]; L80, 24 h): 25 µg/mL (≈ 63.1 µM)
- ED50 ([10]; ip): 79.4 mg/kg
- ED50 ([10]; sc): ~200 mg/kg
- fraction unbound ([11]; dialysis): ~0.3
- fraction unbound ([11]; ultrafiltration): ~0.3
- MIC ([12]; Klebsiella pneumoniae, A809, 24 h): 0.5 µg/mL (≈ 1.26 µM)
- ED50 (Escherichia coli 65161): 115 mg/kg
- ED50 ([13]; ip): 1.9 mg/kg
- ED50 ([13]; po): 14.7 mg/kg
- ED50 ([13]; sc): 16.2 mg/kg
- dose excreted at 6 h [14]: 22.2%
- dose excreted at 27 h [14]: 26.9%
- LD50 (in vivo): 6000 to 8000 mg/kg
- concentration at 0.5 h [15]: 33900 ng/mL
- concentration at 0.25 h [15]: 73800 ng/mL
- concentration at 1 h [15]: 8500 ng/mL
- concentration at 2 h [15]: < 1100 ng/mL
- concentration at 4 h [15]: < 1000 ng/mL
- MIC ([16]; Bacillus subtilis, ATCC6633, 24 h): 0.03 µg/mL (≈ 0.0757 µM)
- MIC ([17]; Staphylococcus aureus, A55, 24 h): 0.25 µg/mL (≈ 0.631 µM)
- MIC (Brucella melitensis A488): 6 µg/mL (≈ 15.1 µM)
- MIC ([18]; Streptococcus, A266, 24 h): 0.06 µg/mL (≈ 0.151 µM)
- ED50 [19]: 43 mg/kg

Compound: CC1=C(C(=O)O)N2C(=O)C(NC(=O)Cc3cc(-c4c(Cl)cccc4Cl)no3)C2SC1 (stereo not drawn) [Example IV, Sodium salt of 7{[3-(2,6-dichlorophenyl)isoxazol-5-yl]acetamido}desacetoxycephalosporanicacid]
- ED50 ([1]; ip): > 215 mg/kg
- ED50 ([2]; ip): 19.6 mg/kg
- ED50 ([2]; po): > 215 mg/kg
- ED50 ([2]; sc): > 215 mg/kg
- MIC [3, 20]: 6 µg/mL
- MIC [4]: 1.5 µg/mL
- ED50 (Proteus mirabilis O.T.; ip): > 215 mg/kg
- ED50 ([5]; ip): 23.3 mg/kg
- ED50 ([5]; po): ~200 mg/kg
- ED50 ([5]; sc): > 215 mg/kg
- MIC [6]: 3 µg/mL
- MIC [7, 21]: 0.75 µg/mL
- MIC [8, 22]: 0.5 µg/mL
- MIC ([9]; L80, 24 h): 12.5 µg/mL
- ED50 ([10]; ip): > 215 mg/kg
- MIC [12, 23]: > 100 µg/mL
- ED50 ([13]; ip): 23.3 mg/kg
- ED50 ([13]; po): 50.1 mg/kg
- ED50 ([13]; sc): 31.6 mg/kg
- MIC [16, 24]: 1 µg/mL
- MIC [17, 25]: 0.75 µg/mL
- MIC (Brucella melitensis A488): 12.5 µg/mL
- MIC [18, 26]: 0.5 µg/mL

Compound: CC(=O)OCC1=C(C(=O)O)N2C(=O)C(NC(=O)Cc3cc(C)no3)C2SC1 (stereo not drawn) [Example XXII, 7-{[3-methyl-isoxazol-5-yl]acetamido}cephalosporanic acid]
- MIC [3, 20]: 3 µg/mL (≈ 7.59 µM)
- MIC [4]: 1 µg/mL (≈ 2.53 µM)
- MIC [6]: 1 µg/mL (≈ 2.53 µM)
- MIC [7, 21]: 0.5 µg/mL (≈ 1.26 µM)
- MIC [8, 22]: 0.5 µg/mL (≈ 1.26 µM)
- MIC [9, 27]: 25 µg/mL (≈ 63.2 µM)
- fraction unbound ([11]; dialysis): 0.72
- fraction unbound ([11]; ultrafiltration): 0.67
- MIC [12, 23]: 3 µg/mL (≈ 7.59 µM)
- ED50 (Escherichia coli 65161): 100 mg/kg
- Potency Ratio (Escherichia coli 65161; vs Cephalotin, E. coli 65161, intraperitoneal, limits (0.52-2.53) printed): 1.15
- dose excreted at 6 h [14]: 41.4%
- dose excreted at 27 h [14]: 46.9%
- LD50 (in vivo): > 8000 mg/kg
- concentration at 0.5 h [15]: 45000 ng/mL
- concentration at 0.25 h [15]: 57500 ng/mL
- concentration at 1 h [15]: 12300 ng/mL
- concentration at 2 h [15]: 1700 ng/mL
- concentration at 4 h [15]: < 1000 ng/mL
- MIC [16, 24]: 0.06 µg/mL (≈ 0.152 µM)
- MIC [17, 25]: 0.5 µg/mL (≈ 1.26 µM)
- MIC (Brucella melitensis A488): 12.5 µg/mL (≈ 31.6 µM)
- MIC [18, 26]: 0.12 µg/mL (≈ 0.303 µM)
- ED50 [19]: 23 mg/kg
- Potency Ratio ([19]; vs Cephalotin, S. aureus A 2001, subcutaneously, limits (0.73-4.92) printed): 1.90

Compound: CC(=O)OCC1=C(C(=O)O)N2C(=O)C(NC(=O)Cc3cc(-c4c(C)cc(C)cc4C)no3)C2SC1 (stereo not drawn) [VII, Sodium salt of 7-{[3-(2,4,6-trimethyl)phenylisoxazol-5-yl]acetamido}cephalosporanic acid]
- ED50 ([1]; ip): > 215 mg/kg
- ED50 ([1]; po): > 215 mg/kg
- MIC [3, 20]: 50 µg/mL
- MIC [4]: 0.12 µg/mL
- ED50 (Proteus mirabilis O.T.; ip): > 215 mg/kg
- ED50 (Proteus mirabilis O.T.; po): ~215 mg/kg
- ED50 ([5]; ip): 17.1 mg/kg
- ED50 ([5]; po): > 215 mg/kg
- ED50 ([5]; sc): 140 mg/kg
- MIC [6]: 0.25 µg/mL
- MIC [7, 21]: 0.03 µg/mL
- MIC [8, 22]: 0.06 µg/mL
- MIC [9, 27]: 1 µg/mL
- ED50 ([10]; ip): > 215 mg/kg
- ED50 ([10]; po): > 215 mg/kg
- MIC [12, 23]: 50 µg/mL
- ED50 ([13]; ip): 3.8 mg/kg
- ED50 ([13]; po): 70 mg/kg
- ED50 ([13]; sc): 18.5 mg/kg
- MIC [16, 24]: 0.015 µg/mL
- MIC [17, 25]: 0.06 µg/mL
- MIC (Brucella melitensis A488): 12.5 µg/mL
- MIC [18, 26]: 0.03 µg/mL
